# Literature values as cited in PMC8459971, “Evaluation of the hepatotoxicity of the novel GPR40 (FFAR1) agonist CPL207280 in the rat and monkey” (PLoS ONE, 2021).
# Conditions: phase III studies, within six months; cited from earlier work
compound,measurement,value
"Cc1cc(OCCCS(C)(=O)=O)cc(C)c1-c1cccc(COc2ccc3c(c2)OC[C@H]3CC(=O)O)c1 [TAK-875, fasiglifam, reference compound]",study participants with serum ALT elevations > 3 × ULN,2.7%
